Melting point data for 87 compounds are collected here from a melting point compilation (Tetko et al.; mined from patent text by program, amines drawn as free bases though some values may be those of a salt).

Each structure is given as a SMILES string.

As usually defined, the melting point is the temperature of the solid-liquid transition.

As for `COc1ccc(C(=O)c2cc3ccncc3[nH]2)cc1`, the melting point lay within 225 to 228 °C.

`CCCCCCCCCCCCCCCCC[C@@H](C[C@@H]1OC(=O)[C@H]1CCCCCC)OC(=O)[C@H](CC(C)C)NC=O` showed a melting point of 64 to 65 °C.

Consider `Clc1ncc(-c2ccnc(N3CCOCC3)n2)c2ccccc12`, for which the melting point is 180 to 181 °C.

`Cc1cc(-c2ccc(OC(F)(F)F)cc2)ccc1C1COC(c2c(F)cccc2F)=N1` (configuration not stated) showed a melting point of 78.5 to 79 °C.

In the case of `COc1ccc(C2=NN=C(C)C(C)c3cc(OC)c(OC)cc32)cc1OC` (configuration not stated), the melting point lay in the range of 201 to 203 °C.

`CN1C(=O)Cc2cccc(C(=O)c3ccccc3)c21` yielded a melting point of 89 to 90.5 °C.

With `CCOC(=O)c1c(Oc2ccc(Cl)cc2N)c2ccccc2n1C`, the melting point fell in the range of 118 to 120 °C.

Consider `Cc1cc(Nc2cncc(-c3ccccc3)n2)n[nH]1`, for which the melting point lay within 232 to 234 °C.

In the case of `Cc1cccc2c1CCC2=NNC(=N)N`, the melting point is over 300 °C.

Compound `CC1CC(=O)NN=C1c1ccc(-n2cccc2)nc1` (configuration not stated) returned a melting point of 192 to 193 °C.

Take `COCC(C)n1nc(-c2c(-c3ccccc3)nn3ccc(OC)cc23)ccc1=O` (configuration not stated): the melting point was 138 to 139 °C.

As to `COc1ccccc1Oc1c(Cl)nc(-c2cccc(OCc3ccccc3)c2)nc1Cl`, the melting point lay in the range of 127 to 132 °C.

`CNc1cccc2c1CCn1cc(-c3ccccc3)nc1C2OC1CCN(C)CC1` (configuration not stated) gave a melting point of 189 °C.

As to `Cc1ccc(S(C)(=O)=O)c(S(=O)(=O)NC(C)(C)C)c1`, the melting point was 129 to 133 °C.

With `C=CCCCCCCCCN=C=O`, the melting point fell in the range of 94 to 97 °C.

In turn, `CCOC(=O)C1=C(C)Nc2nc(N3CCOCC3)nc(N3CCOCC3)c2C1c1ccccc1C#N` (configuration not stated) showed a melting point of 248 °C.

As for `CCCN1CCC(Cc2ccc3c(c2)c(Cc2ccc(C(=O)NS(=O)(=O)c4ccccc4C)cc2OC)cn3C)C1=O` (configuration not stated), the melting point lay in the range of 112 to 122 °C.

Compound `O=C(Nc1ccc(N2CCN(C(C(=O)NCC(F)(F)F)c3ccccc3)CC2)cc1)c1ccccc1-c1ccc(C(F)(F)F)cc1` (configuration not stated) yielded a melting point of 208 °C.

As to `CCCCn1c(=O)c2[nH]c(/C=C/c3cc(OC)c(OC)c(OC)c3)nc2n(CCCC)c1=O`, the melting point lay within 206 to 207 °C.

`COCC#CCCCCC12OCC(C(C)(C)C)(CO1)CO2` registered a melting point of 47 to 49 °C.

In turn, `CN1CCN(c2ccc(OCc3cc(CCC(=O)O)c4c(c3)CC(NS(=O)(=O)c3ccc(Cl)cc3)CC4)cc2)CC1` (configuration not stated) showed a melting point of 148 °C.

The compound `CC(=O)OCC1COc2c(cc(Cl)cc2[N+](=O)[O-])N1` (configuration not stated) showed a melting point of 76 to 84 °C.

Regarding `COC(=O)c1ccc2ccccc2c1OCC(F)(F)F`, the melting point was in the range of 69.5 to 70.5 °C.

Turning to `CCOC(=O)C1(c2cccc(Cl)c2C)CCN(S(=O)(=O)c2ccc(C)cc2)CC1`, the melting point turned out to be 134 °C.

Turning to `O=Cc1cc(C#Cc2ccccc2)c(C=O)cc1C#Cc1ccccc1`, the melting point is 179 to 181 °C.

Regarding `CCOC(=O)CC1(S(N)(=O)=O)c2cc(F)ccc2-c2ccc(F)cc21`, the melting point lay within 215 to 217 °C.

As for `CC1CN(c2ccc(N)cc2)C(C)CN1CC(O)(Cn1cncn1)c1ccc(Cl)cc1Cl` (configuration not stated), the melting point is 74 to 75 °C.

As to `CCOC(=O)C1C(c2ccco2)C(C(=O)OCC)C(O)(C(F)(F)F)NC1(O)C(F)(F)F` (configuration not stated), the melting point was 129 to 131 °C.

As for `COCCCn1c(CO)c(Br)c2c3c(c(-c4ccccc4Cl)cc21)C(=O)NC3=O`, the melting point lay in the range of 178 to 180 °C.

`Fc1cccc(F)c1COCc1nc2ccccc2n1Cc1c(F)cccc1F` gave a melting point of 109 °C.

The compound `CCCCOc1cc2c(Cl)c(C#N)cnc2cc1OCCOC` came in with a melting point of 128 to 130 °C.

Regarding `O=C1NN=C(c2ccc3c(c2)CCN(C2CCC2)CC3)C2CCCC12` (configuration not stated), the melting point was in the range of 198 to 201 °C.

In turn, `Cc1c(C)c(N2CCN(c3ccc(S(C)=O)cc3)CC2)c(C)c2c1OC(C)(C)C2` (configuration not stated) returned a melting point of 223 to 227 °C.

On to `c1ccc(COc2cc3ccncc3cc2OCc2ccccc2)cc1`, for which the melting point was found to be 97 °C.

Take `CCOC(=O)CC(C#N)(CC(=O)OCC)c1ccc(OC)cc1`: the melting point fell in the range of 65 to 75 °C.

For `COC(=O)C(Sc1ccc(Cl)cc1)c1ccc(Oc2ccccc2)cc1` (configuration not stated), the melting point is 66 to 67.5 °C.

Compound `CC(C)(C)c1cc(SCCc2nnco2)cc(C(C)(C)C)c1O` displayed a melting point of 87.5 to 89 °C.

Turning to `CC(CO)N1C(=O)N(c2ccc(Cl)cc2)CC1C` (configuration not stated), the melting point was in the range of 108 to 110 °C.

In the case of `Cn1cc(-c2ccccc2)c(=O)c(-c2cccc(F)c2)c1`, the melting point is 134 °C.

As to `CCCOc1ccc(CCNC(=O)C=Cc2ccc(Cl)cc2Cl)cc1OCCC`, the melting point fell in the range of 132 to 134 °C.

`Cc1cccc(C)c1NC(=O)Nc1sc2cc3c(cc2c1-c1ccccc1Cl)CCC3`: the melting point fell in the range of 236 to 237 °C.

On to `O=C1CCc2c1ccc1c2CCc2ccccc2-1`, for which the melting point lay in the range of 127 to 128 °C.

As for `Cc1[nH]cc2c(=O)n(-c3ccc(Cl)cc3)nc-2c1-c1cccc(-n2cnnc2)c1`, the melting point is over 350 °C.

`CCOC(=O)c1oc(Oc2ccccc2)nc1C(F)(F)F` had a melting point of 75 to 77 °C.

`CCCCS(=O)(=O)Nc1ccc(Oc2cccc3cccnc23)cc1` returned a melting point of 162 °C.

`O=C(CN1CS(=O)CC1=O)N1CCN(C(c2ccccc2)c2ccccc2)CC1` (configuration not stated) showed a melting point of 225 to 226 °C.

`Cc1[nH]nc(Oc2c(Cl)cc(C(F)(F)F)cc2Cl)c1C`: the melting point fell in the range of 220 to 223 °C.

`Brc1cncc2cccnc12` came in with a melting point of 79 to 81 °C.

In turn, `O=C(C#Cc1ccncc1)c1ccccc1` displayed a melting point of 74 to 75 °C.

Regarding `O=C(NO)c1ccc(CNC(=O)c2[nH]c(-c3ccccc3)cc2-c2ccc(C(F)(F)F)cc2)cc1`, the melting point is 137 to 138 °C.

In turn, `NC1CCc2ccccc2C1NC(=O)OCc1ccccc1` (configuration not stated) yielded a melting point of 102 to 145 °C.

The compound `O=C(O)CCc1cn(Cc2ccc(OCc3csc(-c4cnccn4)n3)cc2)cc1-c1ccccc1` showed a melting point of 137 to 138 °C.

Take `O=C(O)c1cc(C(F)(F)F)nn1-c1ncccc1Cl`: the melting point is 175 to 176 °C.

Turning to `Cc1oc(-c2ccccc2)nc1CCOc1ccc(COc2ccccc2CC(=O)O)cc1`, the melting point was 141 to 142 °C.

With `N#Cc1cccc(C(=O)Nc2ccc(-n3nc(C(F)(F)F)cc3C(F)(F)F)nc2)c1`, the melting point was 206 to 208 °C.

Compound `Cc1cc(F)ccc1-c1nc(NC(C)(CO)CO)nc2c1ccc(=O)n2-c1ccccc1F` yielded a melting point of 160 to 162 °C.

As to `COc1ccnc(CCc2nc3cc(-c4ccc(N)cc4)cnc3[nH]2)c1`, the melting point was in the range of 117 to 119 °C.

Compound `O=C1COc2cc(NCC(=O)N3CCC(Oc4ccc(Cl)cc4)CC3)ccc2N1` returned a melting point of 207 to 210 °C.

Consider `CCC(C)(C)c1ccc(OCCCCNC(=O)c2cc(Sc3nnnn3-c3ccccc3)c3ccccc3c2O)c(C(C)(C)CC)c1`, for which the melting point lay within 147 to 148 °C.

In the case of `COC(=O)CSCCn1cc(C)c(=O)[nH]c1=O`, the melting point was found to be 75 °C.

Regarding `CC(C)NCC(O)COc1ncccc1Cl` (configuration not stated), the melting point was in the range of 71 to 73 °C.

`CC(=O)Nc1ccc(S(=O)(=O)Nc2cc(C)on2)cc1` displayed a melting point of 220 to 222 °C.

In the case of `COC(=O)C(CC#Cc1cc2c(O)c(C(=O)NCc3ccc(Cl)cc3)cnc2s1)C(=O)OC`, the melting point was in the range of 197 to 198 °C.

For `O=C1NC(=O)C2=C1c1c([nH]c3ccccc13)Cc1[nH]c3ccccc3c12`, the melting point is over 350 °C.

`CS(=O)(=O)c1ccc(-c2ccccc2-c2ccc(F)c(Cl)c2)cc1` registered a melting point of 180 to 181 °C.

Consider `COc1ccc2c(c1)C=CC(C#N)N2C(=O)c1ccccc1` (configuration not stated), for which the melting point was found to be 124 °C.

Regarding `O=C(O)COc1ccc(Nc2nccc(-c3ccncc3)n2)cc1`, the melting point lay in the range of 308 to 310 °C.

As for `Cc1ccc(S(=O)(=O)N2[C@H](CCCNS(C)(=O)=O)CC[C@@H]2c2ccc(F)cc2)cc1` (racemic), the melting point was 123 °C.

`COC(=O)c1nc2n(n1)-c1ccccc1N(c1cccc(C(F)(F)F)c1)C2` came in with a melting point of 204 to 206 °C.

As for `COc1ccc(-n2cncc2-c2ccccc2)cc1`, the melting point was found to be 106 °C.

`Cc1cccc(Cl)c1NC(=O)n1nc(Oc2cccc(C(F)(F)F)c2)cc1C` showed a melting point of 55 to 58 °C.

In turn, `Cc1cc(-c2cccc(C(F)(F)F)c2)c2nc(OCC(F)(F)F)nnc2c1` came in with a melting point of 140 to 141 °C.

In turn, `CC(Oc1ccc(Oc2ccc(C(F)(F)F)cc2Cl)cc1)C(=O)O` (configuration not stated) gave a melting point of 90 to 92 °C.

`NC(=O)N(O)CC(=O)Nc1ccc(Oc2ccccc2)cc1` gave a melting point of 190 °C.

Compound `CCOC(=O)C(CCC(=O)c1ccc(F)cc1)(NC(C)=O)C(=O)OCC` showed a melting point of 73 °C.

`COC(=O)c1cn(C(c2ccccc2)(c2ccccc2)c2ccccc2)c(I)n1` displayed a melting point of 192 to 194 °C.

`CCCOc1ccc(/C=C/C(=O)N2CCOCC2)cc1-c1nc2c(c(C)nn2CCC)c(=O)[nH]1` yielded a melting point of 156 to 157 °C.

The compound `COc1cc2c(cc1CNC1CCCNC1c1ccccc1)N(C)C(=O)CC2(C)C` (configuration not stated) returned a melting point of over 280 °C.

In turn, `Cc1c(CC(=O)O)c2cc(OCc3nc4ccccc4s3)ccc2n1Cc1ccccc1` registered a melting point of 186 to 188 °C.

In turn, `OCC(O)COc1cc(-c2cccc(Cl)c2)on1` (configuration not stated) had a melting point of 92 to 93 °C.

Regarding `CC(=O)N(C)c1cccc(Sc2ccc([N+](=O)[O-])cc2)c1`, the melting point is 66 to 68 °C.

Compound `Nc1cc(-c2ccnc3c(C(=O)c4cccs4)cnn23)cs1` displayed a melting point of 174 to 176 °C.

Compound `COc1ccc(CC(NC(c2ccccc2)c2ccccc2)P(O)O)cc1OC` (configuration not stated) returned a melting point of 205 °C.

Turning to `CC(=O)SCCc1nc[nH]n1`, the melting point was 84 to 86 °C.

Compound `CC#CC(O)(Cn1cncn1)c1ccc(Oc2ccc(Cl)cc2)cc1Cl` (configuration not stated) showed a melting point of 137 °C.

`O=c1c2cc(F)c(N3CCCC3)nc2n(Cc2ccccc2)c(=O)n1OCc1ccccc1` had a melting point of 171 to 172 °C.

Turning to `C=C(C(=O)NC1CCCCC1)c1ccccc1`, the melting point lay in the range of 131 to 133 °C.
